Experiment [1] concerns the target Beta-1 adrenergic receptor (Rattus norvegicus, UniProt P18090). The experiment is described as follows: Displacement of [3H]CGP-12177 from beta1-adrenergic receptor in Sprague-Dawley rat cortical membrane after 2 hrs.
For the next experiment, the species on record is Homo sapiens. The experiment is described as follows: Selectivity ratio of Ki for human beta1-adrenergic receptor to Ki human beta2-adrenergic receptor.
Experiment [2] has as its target Beta-1 adrenergic receptor (Homo sapiens, UniProt P08588). The experiment is described as follows: Displacement of [125I]-CYP from human beta1-adrenergic receptor expressed in COS-7 cells by gamma counting. Format: cell-based. For orientation: In a radioligand displacement assay an active substance lowers the binding of a labelled ligand.
For experiment [3], the target named is T1, Beta-2 adrenergic receptor (Homo sapiens, UniProt P07550). The experiment is described as follows: Displacement of [125I]-CYP from human beta2-adrenergic receptor expressed in COS-7 cells by gamma counting. Format: cell-based.
Experiment [4] deals with Beta-2 adrenergic receptor (Rattus norvegicus) (UniProt P10608). The experiment is described as follows: Agonist activity beta2-adrenergic receptor in rat ventricular myocytes assessed as cell contraction following electrical stimulation by optical edge tracking method using photodiode array in presence of receptor agonist zinterol. Format: functional, cell-based.
Experiment [5] can be described thus: Selectivity ratio of Ki for beta1-adrenergic receptor in Sprague-Dawley rat cortical membrane to Ki for human beta2-adrenergic receptor.
The target in experiment [6] is Beta-2 adrenergic receptor (Rattus norvegicus) (UniProt P10608). The experiment is described as follows: Agonist activity beta2-adrenergic receptor in rat ventricular myocytes assessed as cell contraction following electrical stimulation by optical edge tracking method using photodiode array in presence of receptor antagonist ICI 118551. It counts as functional, cell-based.

The target in experiment [7] is T1, Beta-2 adrenergic receptor. The experiment is described as follows: Displacement of [3H]CGP-12177 from human beta2-adrenergic receptor expressed in HEK 293 cells. It counts as cell-based, HEK293.

Activity calls are given as the source filed them. The calls are words filed in the database; no cut-off is given here.

By Ki is commonly meant a measure of affinity in units of concentration, obtained from inhibition or displacement. High values mean lower affinity, low ones higher affinity.

T1 sequence (P07550 whole entry): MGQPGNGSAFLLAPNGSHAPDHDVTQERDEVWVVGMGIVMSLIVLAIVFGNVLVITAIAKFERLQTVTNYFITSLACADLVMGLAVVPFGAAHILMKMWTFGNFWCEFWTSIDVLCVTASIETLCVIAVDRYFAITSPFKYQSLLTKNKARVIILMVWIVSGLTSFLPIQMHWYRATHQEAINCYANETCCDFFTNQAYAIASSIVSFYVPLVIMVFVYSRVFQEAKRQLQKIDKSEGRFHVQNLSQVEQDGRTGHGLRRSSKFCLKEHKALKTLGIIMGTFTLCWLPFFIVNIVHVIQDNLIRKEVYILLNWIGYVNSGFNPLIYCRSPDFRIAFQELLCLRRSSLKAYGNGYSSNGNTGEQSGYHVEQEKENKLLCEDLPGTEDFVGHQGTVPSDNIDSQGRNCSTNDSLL
Sequence of Beta-1 adrenergic receptor (Rattus norvegicus, UniProt P18090) (P18090 whole entry): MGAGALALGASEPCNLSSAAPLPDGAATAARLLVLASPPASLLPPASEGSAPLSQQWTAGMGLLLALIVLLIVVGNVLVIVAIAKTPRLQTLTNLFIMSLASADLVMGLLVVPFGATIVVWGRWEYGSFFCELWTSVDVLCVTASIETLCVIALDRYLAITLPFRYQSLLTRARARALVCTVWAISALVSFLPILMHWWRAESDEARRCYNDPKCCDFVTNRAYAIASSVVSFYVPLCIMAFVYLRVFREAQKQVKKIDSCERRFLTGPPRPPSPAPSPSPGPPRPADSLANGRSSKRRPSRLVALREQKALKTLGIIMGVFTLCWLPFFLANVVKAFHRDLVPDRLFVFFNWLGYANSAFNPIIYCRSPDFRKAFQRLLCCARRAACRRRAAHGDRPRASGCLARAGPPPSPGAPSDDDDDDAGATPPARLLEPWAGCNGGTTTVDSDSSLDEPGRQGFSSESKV
Sequence of Beta-2 adrenergic receptor (Rattus norvegicus) (P10608 whole entry, looked up): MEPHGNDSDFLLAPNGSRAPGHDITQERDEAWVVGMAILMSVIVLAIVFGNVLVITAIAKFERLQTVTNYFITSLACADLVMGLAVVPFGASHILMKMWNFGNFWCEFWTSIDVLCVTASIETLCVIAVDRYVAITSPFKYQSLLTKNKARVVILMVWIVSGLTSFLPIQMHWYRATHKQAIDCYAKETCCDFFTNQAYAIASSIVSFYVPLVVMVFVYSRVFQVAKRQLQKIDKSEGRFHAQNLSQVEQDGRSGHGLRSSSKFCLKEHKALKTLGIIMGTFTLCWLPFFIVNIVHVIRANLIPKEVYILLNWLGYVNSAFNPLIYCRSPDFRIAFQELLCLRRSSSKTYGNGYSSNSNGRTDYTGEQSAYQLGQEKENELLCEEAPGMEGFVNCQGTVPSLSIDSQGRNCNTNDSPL
Sequence of Beta-1 adrenergic receptor (Homo sapiens, UniProt P08588) (P08588 whole entry): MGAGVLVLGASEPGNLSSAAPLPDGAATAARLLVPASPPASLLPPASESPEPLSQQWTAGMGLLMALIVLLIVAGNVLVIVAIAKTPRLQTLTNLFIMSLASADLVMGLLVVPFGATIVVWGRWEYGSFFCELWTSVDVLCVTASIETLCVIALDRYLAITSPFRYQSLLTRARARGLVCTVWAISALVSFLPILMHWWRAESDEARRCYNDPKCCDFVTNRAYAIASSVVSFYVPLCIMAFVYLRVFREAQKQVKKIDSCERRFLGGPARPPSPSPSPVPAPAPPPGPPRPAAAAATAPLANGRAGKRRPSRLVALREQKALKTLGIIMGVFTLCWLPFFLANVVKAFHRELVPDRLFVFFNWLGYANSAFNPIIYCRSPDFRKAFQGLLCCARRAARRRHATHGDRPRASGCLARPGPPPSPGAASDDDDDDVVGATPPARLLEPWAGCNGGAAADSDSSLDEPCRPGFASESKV

`C[C@@H](Cc1ccc2ccccc2c1)NC[C@H](O)c1cc(O)cc(O)c1`: the Ki in experiment [1] turned out to be 27.1 µM.
In the case of `COc1ccc(C[C@@H](C)NC[C@H](O)c2cc(O)cc(O)c2)c2ccccc12`, the inhibition constant Ki in experiment [1] came to 161 µM.
Take `OCc1cc(C(O)CNCCCCCCCCCCCc2ccccc2)ccc1O` (stereo not given): in the experiment listed under Homo sapiens, the Ratio Ki turned out to be 10. For the same compound, the Ki in experiment [2] is 2.3 µM; in experiment [3] it was 0.22 µM.
For `CC[C@H](Cc1ccc(O)cc1)NC[C@H](O)c1cc(O)cc(O)c1`, the outcome in experiment [4] was Active. Also, the Ratio Ki in experiment [5] worked out at 334. Further, in experiment [6], the result was inactive. Also, the Ki was 424 µM in experiment [1] and 1.27 µM in experiment [7].
Turning to `C[C@H](Cc1ccc2ccccc2c1)NC[C@H](O)c1cc(O)cc(O)c1`, in experiment [1], the affinity, expressed as Ki, was 16.6 µM.
In experiment [1], `COc1ccc(C[C@H](C)NC[C@H](O)c2cc(O)cc(O)c2)c2ccccc12` (racemic) came in with an inhibitory constant (Ki) of 14.8 µM.
With `CC[C@@H](Cc1ccc(O)cc1)NC[C@H](O)c1cc(O)cc(O)c1` (racemic), in experiment [5], the Ratio Ki is 20. Also, the Ki is 117 µM in experiment [1] and 5.76 µM in experiment [7].

Source of the values: ChEMBL document CHEMBL1800026 (Bioorg Med Chem, 2010).
